Measured values published in patent US20210298306A1, “PESTICIDALLY ACTIVE AZOLE-AMIDE COMPOUNDS” (SYNGENTA PARTICIPATIONS AG, priority 2018, published 2021).

How the values were obtained:
Assay type in all cases: in vivo
Diabrotica balteata = test: Example B1: Diabrotica balteata (corn root worm), maize sprouts sprayed, L2 larvae; conditions: 96 h, application rate 200 ppm, 4 days after infestation, read-out: effect in at least one of the two categories (mortality or growth inhibition)
Experimental: Example B1: Diabrotica Balteata (Corn Root Worm)
Maize sprouts placed onto an agar layer in 24-well microtiter plates were treated with aqueous test solutions prepared from 10,000 ppm DMSO stock solutions by spraying. After drying, the plates were infested with L2 larvae (6 to 10 per well). The samples were assessed for mortality and growth inhibition in comparison to untreated samples 4 days after infestation.
(§1) The following compounds gave an effect of at least 80% in at least one of the two categories (mortality or growth inhibition) at an application rate of 200 ppm: […]

Euschistus heros = test: Example B2: Euschistus heros (neotropical brown stink bug), soybean leaves sprayed, N2 nymphs; conditions: 120 h, application rate 200 ppm, 5 days after infestation, read-out: effect in at least one of the two categories (mortality or growth inhibition)
Experimental: Example B2: Euschistus heros (Neotropical Brown Stink Bug)
Soybean leaves on agar in 24-well microtiter plates were sprayed with aqueous test solutions prepared from 10,000 ppm DMSO stock solutions. After drying the leaves were infested with N2 nymphs. The samples were assessed for mortality and growth inhibition in comparison to untreated samples 5 days after infestation.
as §1

Plutella xylostella = test: Example B4: Plutella xylostella (diamond back moth), artificial diet, 24-well, eggs; conditions: 192 h, application rate 200 ppm, 8 days after infestation, read-out: effect in at least one of the two categories (mortality or growth inhibition)
Experimental: Example B4: Plutella xylostella (Diamond Back Moth)
24-well microtiter plates with artificial diet were treated with aqueous test solutions prepared from 10,000 ppm DMSO stock solutions by pipetting. After drying, Plutella eggs were pipetted through a plastic stencil onto a gel blotting paper and the plate was closed with it. The samples were assessed for mortality and growth inhibition in comparison to untreated samples 8 days after infestation.
as §1

Myzus persicae [1] = test: Example B6: Myzus persicae (green peach aphid), intrinsic activity, sucrose solution, 24-well; conditions: 120 h, test rate 12 ppm, 5 days after infestation
Source text: Example B6: Myzus persicae (Green Peach Aphid). Intrinsic Activity
Test compounds prepared from 10,000 ppm DMSO stock solutions were applied by pipette into 24-well microtiter plates and mixed with sucrose solution. The plates were closed with a stretched Parafilm. A plastic stencil with 24 holes was placed onto the plate and infested pea seedlings were placed directly on the Parafilm. The infested plate was closed with a gel blotting paper and another plastic stencil and then turned upside down. The samples were assessed for mortality 5 days after infestation.

Spodoptera littoralis [2] = test: Example B7: Spodoptera littoralis (Egyptian cotton leaf worm), cotton leaf discs sprayed, L1 larvae; conditions: foliar, 72 h, application rate 200 ppm, 3 days after infestation, read-out: control in at least one of the categories (mortality, anti-feedant effect, or growth inhibition)
Experimental: Example B7: Spodoptera littoralis (Egyptian Cotton Leaf Worm)
Cotton leaf discs were placed onto agar in 24-well microtiter plates and sprayed with aqueous test solutions prepared from 10,000 ppm DMSO stock solutions. After drying the leaf discs were infested with five L1 larvae. The samples were assessed for mortality, anti-feeding effect, and growth inhibition in comparison to untreated samples 3 days after infestation. Control of Spodoptera littoralis by a test sample is given when at least one of the categories mortality, anti-feedant effect, and growth inhibition is higher than the untreated sample.

Spodoptera littoralis [3] = test: Example B8: Spodoptera littoralis (Egyptian cotton leaf worm), uptake by lettuce roots from agar, eggs; conditions: 144 h, test rate 12.5 ppm, 6 days after infestation, lettuce root uptake, read-out: effect in at least one of the three categories (mortality, anti-feeding, or growth inhibition)
Source text: Example B8: Spodoptera littoralis (Egyptian Cotton Leaf Worm)
Test compounds were applied by pipette from 10,000 ppm DMSO stock solutions into 24-well plates and mixed with agar. Lettuce seeds were placed onto the agar and the multi well plate was closed by another plate which contained also agar. After 7 days the compound was absorbed by the roots and the lettuce grew into the lid plate. The lettuce leaves were then cut off into the lid plate. Spodoptera eggs were pipetted through a plastic stencil onto a humid gel blotting paper and the lid plate was closed with it. The samples were assessed for mortality, anti-feedant effect and growth inhibition in comparison to untreated samples 6 days after infestation.
The following compounds gave an effect of at least 80% in at least one of the three categories (mortality, anti-feeding, or growth inhibition) at a test rate of 12.5 ppm: […]

Myzus persicae [4] = test: Example B5: Myzus persicae (green peach aphid), feeding/contact activity, sunflower leaf discs; conditions: foliar, 144 h, application rate 200 ppm, 6 days after infestation, Myzus persicae mixed ages
Experimental: Example B5: Myzus persicae (Green Peach Aphid):Feeding/Contact Activity
(§2) Sunflower leaf discs were placed onto agar in a 24-well microtiter plate and sprayed with aqueous test solutions prepared from 10,000 ppm DMSO stock solutions. After drying, the leaf discs were infested with an aphid population of mixed ages. The samples were assessed for mortality 6 days after infestation.

Thrips tabaci = test: Example B9: Thrips tabaci (onion thrips), feeding/contact activity, sunflower leaf discs; conditions: foliar, 144 h; application rate 200 ppm; 6 days after infestation; Thrips tabaci mixed ages
Experimental: Example B9: Thrips tabaci (Onion Thrips) Feeding/Contact Activity
as §2, with “on” for “onto”, “in” for “in a”, “plates” for “plate”, “drying” for “drying,”, “a thrips” for “an aphid”

CC(NC(=O)c1cc(SCC(F)(F)F)cc(C(F)(F)F)c1)c1ncnn1-c1ncccc1F (centres unmarked) [P13, N-[1-[2-(3-fluoro-2-pyridyl)-1,2,4-triazol-3-yl]ethyl]-3-(2,2,2-trifluoroethylsulfanyl)-5-(trifluoromethyl) benzamide]
≥ 80%: percent effect (mortality or growth inhibition) at 200 ppm (Diabrotica balteata)

CC(NC(=O)c1cc(OC(F)F)cc(C(F)(F)F)c1)c1ncnn1-c1ccc(F)cn1 (centres unmarked) [P15, 3-(difluoromethoxy)-N-[1-[2-(5-fluoro-2-pyridyl)-1,2,4-triazol-3-yl]ethyl]-5-(trifluoromethyl) benzamide]
≥ 80%: percent effect (mortality or growth inhibition) at 200 ppm (Diabrotica balteata) | percent effect (mortality or growth inhibition) at 200 ppm (Euschistus heros) | percent effect (mortality or growth inhibition) at 200 ppm (Plutella xylostella) | mortality at 12 ppm (Myzus persicae [1]) | percent control (mortality, anti-feedant effect or growth inhibition) at 200 ppm (Spodoptera littoralis [2]) | percent effect (mortality, anti-feeding or growth inhibition) at 12.5 ppm (Spodoptera littoralis [3])

CC(NC(=O)c1cncc(OC(F)F)c1)c1ncnn1-c1ncccc1F (centres unmarked) [P22, 5-(difluoromethoxy)-N-[1-[2-(3-fluoro-2-pyridyl)-1,2,4-triazol-3-yl]ethyl]pyridine-3-carboxamide]
≥ 80%: percent effect (mortality or growth inhibition) at 200 ppm (Plutella xylostella)

CC(NC(=O)c1cncc(OC(F)F)c1)c1ncnn1-c1ncccn1 (centres unmarked) [P24, 5-(difluoromethoxy)-N-[1-(2-pyrimidin-2-yl-1,2,4-triazol-3-yl)ethyl]pyridine-3-carboxamide]
≥ 80%: percent effect (mortality or growth inhibition) at 200 ppm (Diabrotica balteata) | percent effect (mortality or growth inhibition) at 200 ppm (Euschistus heros) | mortality at 200 ppm (Myzus persicae [4])

CC(c1ncnn1-c1ncccn1)N(CC1CC1)C(=O)c1cc(OC(F)(F)C(F)F)cc(C(F)(F)F)c1 (centres unmarked) [P3, N-(cyclopropylmethyl)-N-[1-(2-pyrimidin-2-yl-1,2,4-triazol-3-yl)ethyl]-3-(1,1,2,2-tetrafluoroethoxy)-5-(trifluoromethyl)benzamide]
≥ 80%: percent effect (mortality or growth inhibition) at 200 ppm (Diabrotica balteata) | percent effect (mortality or growth inhibition) at 200 ppm (Euschistus heros) | percent effect (mortality or growth inhibition) at 200 ppm (Plutella xylostella) | mortality at 12 ppm (Myzus persicae [1]) | percent control (mortality, anti-feedant effect or growth inhibition) at 200 ppm (Spodoptera littoralis [2]) | percent effect (mortality, anti-feeding or growth inhibition) at 12.5 ppm (Spodoptera littoralis [3]) | mortality at 200 ppm (Thrips tabaci)

CC(NC(=O)c1cc(OC(F)F)cc(C(F)(F)F)c1)c1ncnn1-c1ncccc1F (centres unmarked) [P12, 3-(difluoromethoxy)-N-[1-[2-(3-fluoro-2-pyridyl)-1,2,4-triazol-3-yl]ethyl]-5-(trifluoromethyl) benzamide]
≥ 80%: percent effect (mortality or growth inhibition) at 200 ppm (Diabrotica balteata) | percent effect (mortality or growth inhibition) at 200 ppm (Euschistus heros) | percent effect (mortality or growth inhibition) at 200 ppm (Plutella xylostella) | percent control (mortality, anti-feedant effect or growth inhibition) at 200 ppm (Spodoptera littoralis [2])

CC(NC(=O)c1cc(OC(F)F)cc(C(F)(F)F)c1)c1ncnn1-c1ncccn1 (centres unmarked) [P8, 3-(difluoromethoxy)-N-[1-(2-pyrimidin-2-yl-1,2,4-triazol-3-yl)ethyl]-5-(trifluoromethyl) benzamide]
≥ 80%: percent effect (mortality or growth inhibition) at 200 ppm (Diabrotica balteata) | percent effect (mortality or growth inhibition) at 200 ppm (Euschistus heros) | percent effect (mortality or growth inhibition) at 200 ppm (Plutella xylostella) | mortality at 200 ppm (Myzus persicae [4]) | mortality at 12 ppm (Myzus persicae [1]) | percent control (mortality, anti-feedant effect or growth inhibition) at 200 ppm (Spodoptera littoralis [2]) | percent effect (mortality, anti-feeding or growth inhibition) at 12.5 ppm (Spodoptera littoralis [3]) | mortality at 200 ppm (Thrips tabaci)

CC(NC(=O)c1cc(SCC(F)(F)F)cc(C(F)(F)F)c1)c1ncnn1-c1ccc(F)cn1 (centres unmarked) [P16, N-[1-[2-(5-fluoro-2-pyridyl)-1,2,4-triazol-3-yl]ethyl]-3-(2,2,2-trifluoroethylsulfanyl)-(trifluoromethyl) benzamide]
≥ 80%: percent effect (mortality or growth inhibition) at 200 ppm (Diabrotica balteata) | percent effect (mortality or growth inhibition) at 200 ppm (Plutella xylostella) | percent control (mortality, anti-feedant effect or growth inhibition) at 200 ppm (Spodoptera littoralis [2])

CC(c1ncnn1-c1ncccn1)N(CC1CC1)C(=O)c1cc(C(F)F)cc(C(F)(F)F)c1 (centres unmarked) [P1, N-(cyclopropylmethyl)-3-(difluoromethyl)-N-[1-(2-pyrimidin-2-yl-1,2,4-triazol-3-yl)ethyl]-5-(trifluoromethyl) benzamide]
≥ 80%: percent effect (mortality or growth inhibition) at 200 ppm (Diabrotica balteata) | percent effect (mortality or growth inhibition) at 200 ppm (Euschistus heros) | percent effect (mortality or growth inhibition) at 200 ppm (Plutella xylostella) | mortality at 12 ppm (Myzus persicae [1]) | percent control (mortality, anti-feedant effect or growth inhibition) at 200 ppm (Spodoptera littoralis [2]) | mortality at 200 ppm (Thrips tabaci)

CC(NC(=O)c1cc(OCC(F)(F)F)cc(C(F)(F)F)c1)c1ncnn1-c1ncccn1 (centres unmarked) [P7, N-[1-(2-pyrimidin-2-yl-1,2,4-triazol-3-yl)ethyl]-3-(2,2,2-trifluoroethoxy)-5-(trifluoromethyl) benzamide]
≥ 80%: percent effect (mortality or growth inhibition) at 200 ppm (Diabrotica balteata) | percent effect (mortality or growth inhibition) at 200 ppm (Euschistus heros) | percent effect (mortality or growth inhibition) at 200 ppm (Plutella xylostella) | mortality at 200 ppm (Myzus persicae [4]) | mortality at 12 ppm (Myzus persicae [1]) | percent control (mortality, anti-feedant effect or growth inhibition) at 200 ppm (Spodoptera littoralis [2])

CC(NC(=O)c1cc(OCC(F)(F)F)cc(C(F)(F)F)c1)c1ncnn1-c1ccccn1 (centres unmarked) [P10, N-[1-[2-(2-pyridyl)-1,2,4-triazol-3-yl]ethyl]-3-(2,2,2-trifluoroethoxy)-5-(trifluoromethyl) benzamide]
≥ 80%: percent effect (mortality or growth inhibition) at 200 ppm (Diabrotica balteata) | percent effect (mortality or growth inhibition) at 200 ppm (Euschistus heros) | percent effect (mortality or growth inhibition) at 200 ppm (Plutella xylostella) | percent control (mortality, anti-feedant effect or growth inhibition) at 200 ppm (Spodoptera littoralis [2])

CC(NC(=O)c1cc(SCC(F)(F)F)cc(C(F)(F)F)c1)c1ncnn1-c1ncccn1 (centres unmarked) [P6, N-[1-(2-pyrimidin-2-yl-1,2,4-triazol-3-yl)ethyl]-3-(2,2,2-trifluoroethylsulfanyl)-5-(trifluoromethyl) benzamide]
≥ 80%: percent effect (mortality or growth inhibition) at 200 ppm (Diabrotica balteata) | percent effect (mortality or growth inhibition) at 200 ppm (Plutella xylostella) | percent control (mortality, anti-feedant effect or growth inhibition) at 200 ppm (Spodoptera littoralis [2])

CC(NC(=O)c1cc(OC(F)F)cc(C(F)(F)F)c1)c1ncnn1-c1ccccn1 (centres unmarked) [P11, 3-(difluoromethoxy)-N-[1-[2-(2-pyridyl)-1,2,4-triazol-3-yl]ethyl]-5-(trifluoromethyl) benzamide]
≥ 80%: percent effect (mortality or growth inhibition) at 200 ppm (Diabrotica balteata) | percent effect (mortality or growth inhibition) at 200 ppm (Plutella xylostella) | percent control (mortality, anti-feedant effect or growth inhibition) at 200 ppm (Spodoptera littoralis [2]) | percent effect (mortality, anti-feeding or growth inhibition) at 12.5 ppm (Spodoptera littoralis [3])

CC(NC(=O)c1cc(SCC(F)(F)F)cc(C(F)(F)F)c1)c1ncnn1-c1ccccn1 (centres unmarked) [P9, N-[1-[2-(2-pyridyl)-1,2,4-triazol-3-yl]ethyl]-3-(2,2,2-trifluoroethylsulfanyl)-5-(trifluoromethyl) benzamide]
≥ 80%: percent effect (mortality or growth inhibition) at 200 ppm (Diabrotica balteata) | percent effect (mortality or growth inhibition) at 200 ppm (Plutella xylostella)

CC(NC(=O)c1cc(OCC(F)(F)F)cc(C(F)(F)F)c1)c1ncnn1-c1ccc(F)cn1 (centres unmarked) [P17, N-[1-[2-(5-fluoro-2-pyridyl)-1,2,4-triazol-3-yl]ethyl]-3-(2,2,2-trifluoroethoxy)-5-(trifluoromethyl) benzamide]
≥ 80%: percent effect (mortality or growth inhibition) at 200 ppm (Diabrotica balteata) | percent effect (mortality or growth inhibition) at 200 ppm (Euschistus heros) | percent effect (mortality or growth inhibition) at 200 ppm (Plutella xylostella) | percent control (mortality, anti-feedant effect or growth inhibition) at 200 ppm (Spodoptera littoralis [2])
